{"source": "patent US20100081637A1", "about": "“Eczema treatment with vitamin D and analogs thereof method, composition and cream” (Innovia Skincare Corp., priority 2008, published 2010)", "key": {"[1]": {"tested_on": "lesions from atopic dermatitis", "details": "five patients; calcipotriol 50 ug/g and maxacalitriol 25 ug/g, ointment; cited from earlier work"}, "atopic dermatitis": {"tested_on": "atopic dermatitis", "assay": "Topical vitamin D cream in eczema / atopic dermatitis patients, case reports (Examples 1-6)", "details": "for effect of prior treatment on itch / effect of prior treatment on redness: prior treatments of the Example 3 patient, per parent", "from_the_text": "Person, diagnosed with atopic dermatitis. […] Prior treatments consisted of:\nWe apply the cream after bathing, before bedtime, and during the night, when needed for itching. […]\nAdult […]. […] A vitamin D (400 IU/g) cream was applied. […]"}, "phosphate transport": {"tested_on": "phosphate transport", "details": "cited from earlier work; for influence of presence or absence of luminal Ca on phosphate transport: vascular perfusion, 65 pM 1,25-dihydroxyvitamin D3 or 6.5 nM 24,25-dihydroxyvitamin D3"}, "pruritus": {"tested_on": "pruritus", "assay": "Dose response of pruritus scores against vitamin D concentration (the FIGURE)", "assay_type": "in vivo, human", "details": "topical application; read from the dose response graph", "from_the_text": "The FIGURE is a graph illustrating the dose response experimental data in terms of pruritus scores on the vertical scale and a vitamin D concentration in international units per gram (IU/g) on the horizontal scale, with up to four different timing parameters represented by adjacent differentiated bars for each concentration. Pruritus relief is the fastest observed benefit after topical application of our claimed formulations. The graph below indicates an effective concentration as low as 50 IU/g. This is also an indication of bioavailability of vitamin D and therefore an indication of the lowest effective concentration for the treatment of additional symptoms of eczema."}, "phosphate metabolism": {"tested_on": "phosphate metabolism", "details": "Cross and Peterlik 1981; cited from earlier work"}}}
{"smiles": "C=C1/C(=C\\C=C2/CCC[C@]3(C)[C@@H]([C@H](C)OCCC(C)(C)O)CC[C@@H]23)C[C@@H](O)C[C@@H]1O", "note": "[maxacalitriol]", "values": [{"measurement": "effect on lesions from atopic dermatitis", "setting": "[1]", "value": "improvement of lesions"}]}
{"smiles": "CC(=O)OCC(=O)[C@@]12OC(C)(C)O[C@@H]1C[C@H]1[C@@H]3C[C@H](F)C4=CC(=O)C=C[C@]4(C)[C@@]3(F)[C@@H](O)C[C@@]12C", "note": "[Fluocinonide 0.05%, Fluocinonide]", "values": [{"measurement": "effectiveness of prior treatment", "setting": "atopic dermatitis; prior treatment of the Example 5 patient, self-reported", "value": "fairly effective"}]}
{"smiles": "CC1(C)O[C@@H]2C[C@H]3[C@@H]4CCC5=CC(=O)C=C[C@]5(C)[C@H]4[C@@H](O)C[C@]3(C)[C@]2(C(=O)CO)O1", "note": "[Desonide 0.5%, Desonide]", "values": [{"measurement": "effect of prior treatment on itch", "setting": "atopic dermatitis", "value": "gives itch relief"}, {"measurement": "effect of prior treatment on redness", "setting": "atopic dermatitis", "value": "reduces redness"}]}
{"smiles": "C=C1/C(=C\\C=C2/CCC[C@]3(C)[C@@H]([C@H](C)/C=C/[C@@H](O)C4CC4)CC[C@@H]23)C[C@@H](O)C[C@@H]1O", "note": "[calcipotriol]", "values": [{"measurement": "effect on lesions from atopic dermatitis", "setting": "[1]", "value": "improvement of lesions"}]}
{"smiles": "C=C1/C(=C\\C=C2/CCC[C@]3(C)[C@@H]([C@H](C)CCCC(C)(C)O)CC[C@@H]23)C[C@@H](O)C[C@@H]1O", "note": "[1,25-dihydroxyvitamin D3]", "values": [{"measurement": "influence of presence or absence of luminal Ca on phosphate transport", "setting": "phosphate transport", "value": "did not influence"}]}
{"smiles": "C=C1CC[C@H](O)C/C1=C/C=C1\\CCC[C@]2(C)[C@@H]([C@H](C)CCCC(C)(C)O)CC[C@@H]12", "note": "[25-hydroxyvitamin D3]", "values": [{"measurement": "stimulation of phosphate transport relative to the normal concentration (100 nM)", "setting": "phosphate transport; subnormal concentration (20 nM)", "value": "much higher rates"}, {"measurement": "phosphate transport, luminal Ca present", "setting": "phosphate transport; vascular perfusion with 100 nM 25-hydroxyvitamin D3", "value": "stimulated"}]}
{"smiles": "CCCCC(=O)O[C@]1(C(=O)CO)CC[C@H]2[C@@H]3CCC4=CC(=O)CC[C@]4(C)[C@H]3[C@@H](O)C[C@@]21C", "note": "[Hydrocort Val 02%]", "values": [{"measurement": "effect of prior treatment on itch", "setting": "atopic dermatitis", "value": "did not help"}, {"measurement": "effect of prior treatment on redness", "setting": "atopic dermatitis", "value": "did not help"}]}
{"smiles": "C=C1CC[C@H](O)C/C1=C/C=C1\\CCC[C@]2(C)[C@@H]([C@H](C)CCCC(C)C)CC[C@@H]12", "note": "[vitamin D, cholecalciferol]", "values": [{"measurement": "lowest effective concentration for pruritus relief", "setting": "pruritus", "value": 50, "unit": "IU/g"}, {"measurement": "activity with respect to phosphate metabolism", "setting": "phosphate metabolism", "value": "active"}]}
{"smiles": "Cl.OCCOCCN1CCN(C(c2ccccc2)c2ccc(Cl)cc2)CC1", "note": "(stereo not drawn) [Hydroxyz Hcl 10 mg]", "values": [{"measurement": "sleepiness under prior treatment", "setting": "atopic dermatitis; human, in vivo", "value": "made their sleepy"}, {"measurement": "effect of prior treatment on itch", "setting": "atopic dermatitis", "value": "did not help"}]}
{"smiles": "C=C1CCC(O)C/C1=C\\C=C1\\CCCC2(C)C1CCC2C(C)CCC(O)C(C)(C)O", "note": "(stereo not drawn) [24,25-dihydroxyvitamin D3]", "values": [{"measurement": "influence of presence or absence of luminal Ca on phosphate transport", "setting": "phosphate transport", "value": "did not influence"}]}
